Test results: US20260184707A1, “PHARMACEUTICAL COMPOUNDS FOR THE TREATMENT OF COMPLEMENT MEDIATED DISORDERS” (ALEXION PHARMACEUTICALS, INC., priority 2022, published 2026)

Each compound was assayed against T1, Human complement C1s enzyme (Homo sapiens, UniProt P09871) (assay: Human C1s enzyme assay). Details: human complement C1s enzyme 1.16 nM, substrate Z-L-Lys-SBzl, A405; read-out: IC50 (Stars).
T1 construct: purified from human serum, Complement Technology, Inc; purchased Complement Technology, Inc; host or cells: human serum (plasma-derived native protein)
T1 sequence (P09871 438-688 limits assumed): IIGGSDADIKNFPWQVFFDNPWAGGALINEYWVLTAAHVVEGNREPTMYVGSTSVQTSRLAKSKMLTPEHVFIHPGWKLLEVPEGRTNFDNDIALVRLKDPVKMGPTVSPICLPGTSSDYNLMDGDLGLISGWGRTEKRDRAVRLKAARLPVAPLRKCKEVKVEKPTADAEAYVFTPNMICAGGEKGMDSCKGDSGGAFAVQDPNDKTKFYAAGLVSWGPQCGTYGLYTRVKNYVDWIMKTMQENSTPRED
T1 sequence (P09871 16-437 partner limits assumed): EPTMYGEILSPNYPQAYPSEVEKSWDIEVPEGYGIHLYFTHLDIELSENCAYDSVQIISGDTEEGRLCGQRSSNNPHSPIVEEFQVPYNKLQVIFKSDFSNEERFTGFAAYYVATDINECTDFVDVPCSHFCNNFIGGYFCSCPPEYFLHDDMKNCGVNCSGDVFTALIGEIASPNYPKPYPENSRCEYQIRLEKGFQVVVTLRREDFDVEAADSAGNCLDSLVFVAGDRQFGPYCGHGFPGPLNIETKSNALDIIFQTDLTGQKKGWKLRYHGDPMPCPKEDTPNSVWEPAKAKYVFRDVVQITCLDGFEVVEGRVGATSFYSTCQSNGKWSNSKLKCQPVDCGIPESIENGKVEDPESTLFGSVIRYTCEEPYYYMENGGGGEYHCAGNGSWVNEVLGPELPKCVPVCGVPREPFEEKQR
Assay type: biochemical
Method in brief: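 Serum-purified human C1s (1.16 nM final) preincubated 5 min at room temperature with compound in 50 mM Tris, 1 M NaCl, pH 7.5. Z-L-Lys-SBzl and DTNB added at 100 μM each; A405 recorded every 30 s. IC50 from nonlinear regression of reaction rates versus compound concentration.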

Row | IC50 [nM] | SMILES
1 | < 100 | C[C@H](Nc1cnc(C2CCCC2)n(CC(=O)NCc2cc3cnccc3[nH]2)c1=O)c1ccc2oc3ccccc3c2c1 [Compound 277, (S)-N-((1H-pyrrolo[3,2-c]pyr-idin-2-yl)methyl)-2-(2-cyclo-pentyl-5-((1-(dibenzo[b,d]furan-2-yl)ethyl)amino)-6-oxo-pyrimidin-1(6H)-yl)acetamide]
2 | > 1000 | O=C(Cn1c(-c2ccccc2)ncc(-c2ccccc2)c1=O)NCc1cc2cnccc2[nH]1 [Compound 25, N-((1H-pyrrolo[3,2-c]pyridin-2-yl)methyl)-2-(6-oxo-2,5-diphenylpyrimidin-1(6H)-yl)acetamide]
3 | < 100 | O=C(Cn1cncc(NCc2nnc(-c3ccccc3)s2)c1=O)NCc1cc2cnccc2[nH]1 [Compound 485, N-((1H-pyrrolo[3,2-c]pyridin-2-yl)methyl)-2-(6-oxo-5-(((5-phenyl-1,3,4-thiadiazol-2-yl)-methyl)amino)pyrimidin-1(6H)-yl)acetamide]
4 | < 100 | O=C(Cn1c(-c2ccccc2)ncc(NCc2coc(-c3ccccc3)n2)c1=O)NCc1cc2cnccc2[nH]1 [Compound 233, N-((1H-pyrrolo[3,2-c]pyridin-2-yl)methyl)-2-(6-oxo-2-phen-yl-5-(((2-phenyloxazol-4-yl)-methyl)amino)pyrimidin-1(6H)-yl)acetamide]
5 | > 1000 | C[C@@H](Nc1cnc(N2CC3CCC2C3)n(CC(=O)NCc2cc3cnccc3[nH]2)c1=O)c1ccc2oc3ccccc3c2c1 (stereo partly drawn) [Compound 383, N-((1H-pyrrolo[3,2-c]pyridine-2-yl)methyl)-2-(2-(2-azabicyclo[2.2.1]heptan-2-yl)-5-(((R)-1-(dibenzo[b,d]furan-2-yl)ethyl)amino)-6-oxopyrimidin-1(6H)-yl)acetamide]
6 | < 100 | O=C(Cn1c(-c2ccccc2)ncc(NCCCc2ccc(Cl)cc2)c1=O)NCc1cc2cnccc2[nH]1 [Compound 27, N-((1H-pyrrolo[3,2-c]pyridin-2-yl)methyl)-2-(5-((3-(4-chlorophenyl)propyl)amino)-6-oxo-2-phenylpyrimidin-1(6H)-yl)acetamide]
7 | 100 to 1000 | O=C(Cn1c(-c2ccccc2)ncc(NC(=O)NCc2ccccc2)c1=O)NCc1cc2cnccc2[nH]1 [Compound 79, N-((1H-pyrrolo[3,2-c]pyridin-2-yl)methyl)-2-(5-(3-benzyl-ureido)-6-oxo-2-phenylpyr-imidin-1(6H)-yl)acetamide]
8 | > 1000 | O=C(Cn1c(-c2ccccc2)ncc(NCc2ccc3oc4ccccc4c3c2)c1=O)NCc1cc2cnccn2c1 [Compound 144, 2-(5-((dibenzo[b,d]furan-2-ylmethyl)amino)-6-oxo-2-phenylpyrimidin-1(6H)-yl)-N-(pyrrolo[1,2-a]pyrazin-7-ylmethyl)acetamide]
9 | < 100 | C[C@H](Nc1cnc(C2=CCCCC2)n(CC(=O)NCc2cc3cnccc3[nH]2)c1=O)c1ccc2oc3ccccc3c2c1 [Compound 272, (S)-N-((1H-pyrrolo[3,2-c]pyr-idin-2-yl)methyl)-2-(2-(cyclo-hex-1-en-1-yl)-5-((1-(dibenzo [b,d]furan-2-yl)ethyl)amino)-6-oxopyrimidin-1(6H)-yl)acet-amide]
10 | < 100 | O=C(Cn1c(-c2ccc(NC(=O)CO)cc2)ncc(NCc2ccc3oc4ccccc4c3c2)c1=O)NCc1cc2cnccc2[nH]1 [Compound 147, N-((1H-pyrrolo[3,2-c]pyridine-2-yl)methyl)-2-(5-((dibenzo[b,d]furan-2-ylmethyl)amino)-2-(4-(2-hydroxyacetamido)phenyl)-6-oxopyrimidin-1(6H)-yl)acetamide]

The next lines start with the compound.

Row | SMILES | IC50 [nM]
11 | O=C(Cn1c(N2CCOCC2)ncc(NC(=O)c2cnc(-c3ccccc3)o2)c1=O)NCc1cc2cnccc2[nH]1 [Compound 408, N-(1-(2-(((1H-pyrrolo[3,2-c]pyridine-2-yl)methyl)amino)-2-oxoethyl)-2-morpholino-6-oxo-1,6-dihydropyrimidin-5-yl)-2-phenyloxazole-5-carboxamide] | < 100
12 | C[C@@H](Nc1cnc(-c2cccc(F)c2)n(CC(=O)NCc2cc3cnccc3[nH]2)c1=O)c1ccc2oc3ccccc3c2c1 [Compound 229, (R)-N-((1H-pyrrolo[3,2-c]pyr-idin-2-yl)methyl)-2-(5-((1-(dibenzo[b,d]furan-2-yl)ethyl)-amino)-2-(3-fluorophenyl)-6-oxopyrimidin-1(6H)-yl)acet-amide] | < 100
13 | N#Cc1c(NCCCc2ccccc2)ccc(-c2ccccc2)c1CC(=O)NCc1cc2cnccc2[nH]1 [Compound 302, N-((1H-pyrrolo[3,2-c]pyridine-2-yl)methyl)-2-(3-cyano-4-((3-phenylpropyl)amino)-[1,1′-biphenyl]-2-yl)acetamide] | < 100
14 | O=C(Cn1c(-c2ccccc2)ncc(NCCCCc2ccccc2)c1=O)NCc1cc2cnccc2[nH]1 [Compound 2, N-((1H-pyrrolo[3,2-c]pyridin-2-yl)methyl)-2-(6-oxo-2-phen-yl-5-((4-phenylbutyl)amino)-pyrimidin-1(6H)-yl)acetamide] | < 100
15 | O=C(Cn1c(-c2ccc(N3CCCC3=O)cc2)ncc(NCc2ccc3oc4ccccc4c3c2)c1=O)NCc1cc2cnccc2[nH]1 [Compound 153, N-((1H-pyrrolo[3,2-c]pyridin-2-yl)methyl)-2-(5-((dibenzo [b,d]furan-2-ylmethyl)amino)-6-oxo-2-(4-(2-oxopyrrolidin-1-yl)phenyl)pyrimidin-1(6H)-yl)acetamide] | < 100
16 | O=C(Cn1c(-c2ccccc2)ncc(NC(=O)c2nnc(-c3ccccc3)o2)c1=O)NCc1cc2cnccc2[nH]1 [Compound 223, N-(1-(2-(((1H-pyrrolo[3,2-c]pyridine-2-yl)methyl)amino)-2-oxoethyl)-6-oxo-2-phenyl-1,6-dihydropyrimidin-5-yl)-5-phenyl-1,3,4-oxadiazole-2-carboxamide] | < 100
17 | O=C(Cn1c(-c2cccnc2)ncc(NCc2ccc3oc4ccccc4c3c2)c1=O)NCc1cc2cnccc2[nH]1 [Compound 242, N-((1H-pyrrolo[3,2-c]pyridin-2-yl)methyl)-2-(5-((dibenzo [b,d]furan-2-ylmethyl)amino)-6-oxo-2-(pyridin-3-yl)pyrimi-din-1(6H)-yl)acetamide] | < 100
18 | O=C(Cn1c(-c2ccccc2)ncc(NCCCc2ccccc2)c1=O)N[C@@H](CO)c1cc2cnccc2[nH]1 [Compound 16, (R)-N-(2-hydroxy-1-(1H-pyr-rolo[3,2-c]pyridin-2-yl)ethyl)-2-(6-oxo-2-phenyl-5-((3-phen-ylpropyl)amino)pyrimidin-1(6H)-yl)acetamide] | > 1000
19 | O=C(Cn1c(-c2ccccc2)ncc(NC(=O)c2ccc(-c3nccs3)cc2)c1=O)NCc1cc2cnccc2[nH]1 [Compound 172, N-(1-(2-(((1H-pyrrolo[3,2-c]pyridine-2-yl)methyl)amino)-2-oxoethyl)-6-oxo-2-phenyl-1,6-dihydropyrimidin-5-yl)-4-(thiazol-2-yl)benzamide] | < 100
20 | C[C@@H]1CN(c2ncc(N[C@H](C)c3ccc4oc5ccccc5c4c3)c(=O)n2CC(=O)NCc2cc3cnccc3[nH]2)CCO1 [Compound 304, N-((1H-pyrrolo[3,2-c]pyridin-2-yl)methyl)-2-(5-(((R)-1-(dibenzo[b,d]furan-2-yl)ethyl)-amino)-2-((R)-2-methylmorph-olino)-6-oxopyrimidin-1(6H)-yl)acetamide] | 100 to 1000
21 | C[C@@H](Nc1cnc(N2CCCCC2)n(CC(=O)NCc2cc3cnccc3[nH]2)c1=O)c1ccc(-c2ccccc2)s1 [Compound 445, (R)—N-((1H-Pyrrolo[3,2-c]pyridine-2-yl)methyl)-2-(6-oxo-5-((1-(5-phenylthiophen-2-yl)ethyl)amino)-2-(piperidin-1-yl)pyrimidin-1(6H)-yl)acetamide] | < 100
22 | CO[C@@H]1CO[C@H]2[C@@H]1OC[C@H]2OCCCNc1cnc(-c2ccccc2)n(CC(=O)NCc2cc3cnccc3[nH]2)c1=O [Compound 95, N-((1H-pyrrolo[3,2-c]pyridine-2-yl)methyl)-2-(5-((3-(((3R,3aR,6R,6aR)-6-methoxyhexahydrofuro[3,2-b]furan-3-yl)oxy)propyl)amino)-6-oxo-2-phenylpyrimidin-1(6H)-yl)acetamide] | < 100
23 | O=C(CN1C(=O)[C@@H](NCCCc2ccccc2)CC[C@H]1c1ccccc1)NCc1cc2cnccc2[nH]1 (relative stereo) [Compound 489, N-((1H-Pyrrolo[3,2-c]pyridine-2-yl)methyl)-2-((3S*,6S*)-2-oxo-6-phenyl-3-((3-phenylpropyl)amino)piperidin-1-yl)acetamide] | > 1000
24 | O=C(Cn1c(-c2ccc(OC3CS(=O)(=O)C3)cc2)ncc(NCCCc2ccccc2)c1=O)NCc1cc2cnccc2[nH]1 [Compound 124, N-((1H-pyrrolo[3,2-c]pyridine-2-yl)methyl)-2-(2-(4-((1,1-dioxidothietan-3-yl)oxy)phenyl)-6-oxo-5-((3-phenylpropyl)amino)pyrimidin-1(6H)-yl)acetamide] | < 100
